Results taken from patent US20260345594A1, “Methods and Compositions for Controlling Jet Lag, Chronotype, or Circadian Rhythm” (University of Pittsburgh - Of the Commonwealth System of …, priority 2022, published 2026).

Experiments:
Melanopsin = target: T1, Melanopsin (Homo sapiens, UniProt Q9UHM6); test: Melanopsin (OPN4) Presto-Tango luciferase screen; assay type: cell-based; settings: HTLA cells, LED light, agonist alone, read-out: EC50 of receptor activation by the ligand
T1 construct: V2 tail; expressed in transfected cells; host or cells: HTLA cells (HEK293 cell line with tTA-dependent luciferase reporter and β-arrestin2-TEV fusion)
T1 sequence (Q9UHM6 1-478): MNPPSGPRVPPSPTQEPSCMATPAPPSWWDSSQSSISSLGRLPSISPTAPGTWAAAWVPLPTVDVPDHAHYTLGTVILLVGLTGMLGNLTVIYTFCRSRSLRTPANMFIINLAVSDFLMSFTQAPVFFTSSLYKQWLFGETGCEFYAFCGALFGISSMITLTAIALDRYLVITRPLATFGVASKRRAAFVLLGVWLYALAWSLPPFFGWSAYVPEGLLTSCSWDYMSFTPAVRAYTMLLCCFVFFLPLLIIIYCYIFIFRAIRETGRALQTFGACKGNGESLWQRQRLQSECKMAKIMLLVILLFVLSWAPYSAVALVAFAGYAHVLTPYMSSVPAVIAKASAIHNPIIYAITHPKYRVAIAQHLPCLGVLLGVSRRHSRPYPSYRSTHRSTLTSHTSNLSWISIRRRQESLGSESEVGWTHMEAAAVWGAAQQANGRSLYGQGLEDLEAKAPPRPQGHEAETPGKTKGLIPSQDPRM
Excerpt: (§1) Presto-Tango Assay: Empty Tango plasmid was generated from Addgene plasmid #66225. Melanopsin was amplified by pcr from pAAV-GFAP104-melanopsin-mCherry (Addgene plasmid #122630) and AVPR1a from hV1aR-GFP (Addgene plasmid #67846) and cloned to generate OPN4- and AVPR1a-Tango plasmid. HTLA cells (a HEK293 cell line stably expressing a tTA-dependent luciferase reporter and a β-arrestin2-TEV fusion gene—a gift from Bryan Roth) was transfected with OPN4-Tango or AVPR1A-Tango plasmids. The HTLA Cells are grown in DMEM supplemented with 10% FBS, 100 U/ml penicillin and 100 μg/ml streptomycin, 2 μg/ml puromycin and 100 μg/ml hygromycin B (HTLA medium) in a humidified atmosphere at 37 °C in 5% CO2 (HTLA Medium).
(§2) Luciferase activity was measured using Bright-Glo Luciferase (Promega #E2160) assay.
(§3) Day 1: HTLA cells were plated in at 9 to 10×10^6 cells per 100 mm cell culture dish in HTLA Medium.
(§4) Day 2: The cells were transfected using the Polyethylenimine method. […]
(§5) Day 5: The medium containing drug solutions were removed from the wells (by aspiration or shaking), and 50 μL per well of Bright-Glo solution (Promega) diluted 10-fold in filter-sterilized assay buffer, which consisted of 20 mM HEPES and 1×HBSS at pH 7.4 and 1 mM Glucose were added to each well. After incubation for 15 to 20 minutes at room temperature, luminescence was counted in a BioTek-Flx-800 luminescence counter.

[1] = target: T2, AVPR1a (human vasopressin 1a receptor, V1AR) (Homo sapiens, UniProt P37288); test: AVPR1a Presto-Tango luciferase screen; assay type: cell-based
T2 construct: V2 tail; expressed in transfected cells; host or cells: HTLA cells (HEK293 cell line with tTA-dependent luciferase reporter and β-arrestin2-TEV fusion)
T2 sequence (P37288 whole entry, the tested form may be a part): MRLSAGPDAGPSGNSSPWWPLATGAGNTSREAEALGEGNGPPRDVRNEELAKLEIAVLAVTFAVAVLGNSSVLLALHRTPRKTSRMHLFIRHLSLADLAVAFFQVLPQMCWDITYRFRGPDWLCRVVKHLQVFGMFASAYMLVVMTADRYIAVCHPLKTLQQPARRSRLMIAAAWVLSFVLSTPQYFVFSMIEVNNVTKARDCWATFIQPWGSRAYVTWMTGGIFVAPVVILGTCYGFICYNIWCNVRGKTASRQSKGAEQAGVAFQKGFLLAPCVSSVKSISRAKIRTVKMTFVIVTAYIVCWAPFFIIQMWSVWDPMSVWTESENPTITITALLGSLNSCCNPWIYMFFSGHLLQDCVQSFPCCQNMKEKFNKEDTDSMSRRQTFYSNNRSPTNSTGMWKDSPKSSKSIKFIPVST
Excerpt: as §1, §2, §3, §4, §5

| EC50 (Melanopsin) | IC50 ([1]; 5 nM Arginine Vasopressin, 16 hrs illumination (FIG. 9), inhibitor, read-out: EC50 (allosteric inhibition of AVPR1a, ratio of luciferase activity over positive control)) | V1AR inhibition validated by in vitro experiments ([1]; in words) | Compound |
| --- | --- | --- | --- |
| ~250 nM |  |  | CC1=C(/C=C/C(C)=C\C=C\C(C)=C\C=O)C(C)(C)CCC1 [9-cis-Retinol] |
|  | 360 nM | effective V1AR inhibitors | Cc1ccc2[nH]cc(CCNC(=O)Cn3c(=O)c(=O)n(Cc4ccccc4)c4ccccc43)c2c1 [MolPort-007-880-661] |
